Assay results published in BindingDB's records for doi:10.1016/s0960-894x(01)00395-x (Novo Nordisk, 2001).

Molecular target: Glucose-6-phosphatase catalytic subunit (Sus scrofa)
Test: Compound was evaluated for inhibition of Glucose-6-Phosphatase from Triton X-100 disrupted pig liver microsomes.

First: Oc1ccc(/C=N/N(Cc2ccccc2)Cc2ccccc2)cc1 [4-(Dibenzyl-hydrazonomethyl)-phenol]
Second: Clc1ccc(/C=N/N(Cc2ccccc2)Cc2ccccc2)cc1 [N,N-Dibenzyl-N'-[1-(4-chloro-phenyl)-meth-(E)-ylidene]-hydrazine]
The IC50 of the first is 10-fold higher: 2.4 µM for the first, 0.24 µM for the second. The second is the more potent here.

Going from `Clc1ccc(/C=N/N(Cc2ccccc2)Cc2ccccc2)s1` [N,N-Dibenzyl-N'-[1-(5-chloro-thiophen-2-yl)-meth-(E)-ylidene]-hydrazine] to `C(=N\N(Cc1ccccc1)Cc1ccccc1)/c1cccs1` [N,N-Dibenzyl-N'-[1-thiophen-2-yl-meth-(E)-ylidene]-hydrazine], the IC50 rises from 0.17 µM to 1.5 µM (8.8-fold).

First: C(=N\N(Cc1ccccc1)Cc1ccccc1)/c1ccco1 [N,N-Dibenzyl-N'-[1-furan-2-yl-meth-(E)-ylidene]-hydrazine]
Second: OCc1ccc(/C=N/N(Cc2ccccc2)Cc2ccccc2)o1 [[5-(Dibenzyl-hydrazonomethyl)-furan-2-yl]-methanol]
The IC50 of the first is 15-fold lower: 1.1 µM for the first, 16 µM for the second. The first is the more potent here.

First: COc1ccc(/C=N/N(Cc2ccccc2)Cc2ccccc2)cc1 [N,N-Dibenzyl-N'-[1-(4-methoxy-phenyl)-meth-(E)-ylidene]-hydrazine]
Second: CN(C)c1ccc(/C=N/N(Cc2ccccc2)Cc2ccccc2)cc1 [[4-(Dibenzyl-hydrazonomethyl)-phenyl]-dimethyl-amine]
The IC50 of the first is 450-fold lower: 0.22 µM for the first, 100 µM for the second. The first is the more potent here.

Compared with `Clc1cc(Cl)cc(/C=N/N(Cc2ccccc2)Cc2ccccc2)c1` [N,N-Dibenzyl-N'-[1-(3,5-dichloro-phenyl)-meth-(E)-ylidene]-hydrazine], `Clc1ccc(/C=N/N(Cc2ccccc2)Cc2ccccc2)cc1Cl` [N,N-Dibenzyl-N'-[1-(3,4-dichloro-phenyl)-meth-(E)-ylidene]-hydrazine] is lower in IC50: over 100 µM for the first, 2 µM for the second. The second is the more potent here.

Going from `C(=N\N(Cc1ccccc1)Cc1ccccc1)/c1ccccc1` [N,N-Dibenzyl-N'-[1-phenyl-meth-(E)-ylidene]-hydrazine] to `C(=N\N(Cc1ccccc1)Cc1ccccc1)/c1cccnc1` [N,N-Dibenzyl-N'-[1-pyridin-3-yl-meth-(E)-ylidene]-hydrazine], the IC50 rises from 1.5 µM to 3.7 µM (2.5-fold). The first is the more potent here.

`COc1ccc2c(c1)CCCC2=NN(Cc1ccccc1)Cc1ccccc1` [N,N-Dibenzyl-N'-[6-methoxy-3,4-dihydro-2H-naphthalen-(1E)-ylidene]-hydrazine] and `COc1ccccc1/C=N/N(Cc1ccccc1)Cc1ccccc1` [N,N-Dibenzyl-N'-[1-(2-methoxy-phenyl)-meth-(E)-ylidene]-hydrazine] cannot be ordered by IC50: over 50 µM for the first, over 100 µM for the second.

In the case of `CCc1ccc(/C=N/N(Cc2ccccc2)Cc2ccccc2)o1` [N,N-Dibenzyl-N'-[1-(5-ethyl-furan-2-yl)-meth-(E)-ylidene]-hydrazine], the IC50 is reported as 0.33 µM.
